# Test results published in ChEMBL document CHEMBL5260831, “Recent advance in oxazole-based medicinal chemistry” (Eur J Med Chem, 2018).
# Key:
# Staphylococcus aureus [1] = test: Antibiofilm activity against methicillin-sensitive Staphylococcus aureus ATCC 35556 assessed as inhibition of biofilm formation; type: functional
# [2] = system: Mycobacterium tuberculosis; test: Antimycobacterial activity against Mycobacterium tuberculosis H37Rv ATCC27294 assessed as inhibition of bacterial growth by agar dilution assay; type: functional
# [3] = system: Mycolicibacterium smegmatis; test: Antibacterial activity against Mycobacterium smegmatis mc2155ATCC-700084 assessed as bacterial growth inhibition measured after 18 hrs by microplate reader based analysis; type: functional
# MCF7 [4] = test: Antiproliferative activity in human MCF7 cells assessed as cell growth inhibition measured after 48 hrs by MTT assay; type: functional, cell-based; details: MCF7, 48 h
# A549 [5] = test: Antiproliferative activity in human A549 cells assessed as cell growth inhibition measured after 48 hrs by MTT assay; type: functional, cell-based; details: A549, 48 h
# Rattus norvegicus [6] = test: Anti-inflammatory activity against Carrageenan-induced paw edema in rat ulcerogenic activity relative to control; type: functional
# HepG2 [7] = test: Antiproliferative activity in human HepG2 cells assessed as cell growth inhibition; type: functional, cell-based
# MCF7 [8] = test: Antiproliferative activity in human MCF7 cells assessed as cell growth inhibition; type: functional, cell-based
# Staphylococcus aureus [9] = test: Antibacterial activity against Staphylococcus aureus assessed as bacterial growth inhibition by disc diffusion assay; type: functional
# Escherichia coli = test: Antibacterial activity against Escherichia coli assessed as bacterial growth inhibition by microdilution assay; type: functional
# A549 [10] = test: Antiproliferative activity in human A549 cells assessed as cell growth inhibition; type: functional, cell-based
# HeLa = test: Antiproliferative activity in human HeLa cells assessed as cell growth inhibition; type: functional, cell-based
# Alpha-glucosidase [11] = biological target: T1, Alpha-glucosidase (Saccharomyces cerevisiae S288c, UniProt P53341+P38158+P07265); test: Inhibition of yeast alpha-glucosidase using p-nitrophenyl-alpha-D-glucopyranoside as substrate by absorbance based analysis; type: protein assay
# Alpha-glucosidase [12] = biological target: T1, Alpha-glucosidase; test: Inhibition of yeast alpha-glucosidase using p-nitrophenyl-alpha-D-glucopyranoside as substrate; type: protein assay
# HepG2 [13] = test: Antiproliferative activity in human HepG2 cells assessed as cell growth inhibition measured after 72 hrs by MTT assay; type: functional, cell-based; details: HepG2, 72 h
# Rattus norvegicus [14] = test: Anti-inflammatory activity against Carrageenan-induced paw edema in albino rat ulcerogenic activity at 20 mg/kg, po relative to control; type: functional
# P388 = test: Antiproliferative activity gainst mouse P388 cells assessed as cell growth inhibition; type: functional, cell-based
# Pseudomonas aeruginosa = test: Antibacterial activity against Pseudomonas aeruginosa MTCC 741 assessed as microbial growth inhibition measured after 24 hrs by paper disc diffusion technique; type: functional
# Bacillus cereus = test: Antibacterial activity against Bacillus cereus MTCC 430 assessed as microbial growth inhibition measured after 24 hrs by paper disc diffusion technique; type: functional
# [15] = biological target: Protein kinase C beta type (Homo sapiens, UniProt P05771); test: Inhibition of PKCB (unknown origin)
# Sequence of Protein kinase C beta type (P05771 whole entry): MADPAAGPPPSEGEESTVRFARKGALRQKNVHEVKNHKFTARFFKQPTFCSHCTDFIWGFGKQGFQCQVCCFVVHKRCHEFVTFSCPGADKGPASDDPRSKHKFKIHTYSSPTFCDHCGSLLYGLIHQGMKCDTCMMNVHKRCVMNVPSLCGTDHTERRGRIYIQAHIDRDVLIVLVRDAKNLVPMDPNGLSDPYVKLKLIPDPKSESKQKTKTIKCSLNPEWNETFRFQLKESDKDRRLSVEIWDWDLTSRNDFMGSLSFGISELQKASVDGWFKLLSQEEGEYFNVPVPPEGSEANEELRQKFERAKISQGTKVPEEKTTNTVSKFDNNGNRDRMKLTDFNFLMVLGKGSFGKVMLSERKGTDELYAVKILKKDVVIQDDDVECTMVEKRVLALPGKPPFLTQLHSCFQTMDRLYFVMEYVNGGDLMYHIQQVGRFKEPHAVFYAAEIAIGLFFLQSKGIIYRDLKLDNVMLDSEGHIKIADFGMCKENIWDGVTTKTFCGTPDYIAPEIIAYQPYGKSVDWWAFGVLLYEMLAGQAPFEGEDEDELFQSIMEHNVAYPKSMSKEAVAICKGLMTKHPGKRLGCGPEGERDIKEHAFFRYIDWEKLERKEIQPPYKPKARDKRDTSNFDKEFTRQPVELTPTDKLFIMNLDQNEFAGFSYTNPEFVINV
# A549 [16] = test: Antiproliferative activity in human A549 cells assessed as cell growth inhibition measured after 72 hrs by MTT assay; type: functional, cell-based; details: A549, 72 h
# Rattus norvegicus [17] = test: Anti-inflammatory activity against Carrageenan-induced paw edema in Wistar albino rat ulcerogenic activity relative to control; type: functional
# Leishmania major = test: Leishmanicidal activity against Leishmania major JISH118 promastigote infected in human THP-1 macrophage cells assessed as reduction in […]; type: functional, organism-based; details: JISH118, THP-1
# [18] = biological target: Cannabinoid receptor 1 (Homo sapiens) (UniProt P21554); test: Binding affinity to CB1 receptor (unknown origin); details: filed as agonist
# Sequence of Cannabinoid receptor 1 (Homo sapiens) (P21554 whole entry): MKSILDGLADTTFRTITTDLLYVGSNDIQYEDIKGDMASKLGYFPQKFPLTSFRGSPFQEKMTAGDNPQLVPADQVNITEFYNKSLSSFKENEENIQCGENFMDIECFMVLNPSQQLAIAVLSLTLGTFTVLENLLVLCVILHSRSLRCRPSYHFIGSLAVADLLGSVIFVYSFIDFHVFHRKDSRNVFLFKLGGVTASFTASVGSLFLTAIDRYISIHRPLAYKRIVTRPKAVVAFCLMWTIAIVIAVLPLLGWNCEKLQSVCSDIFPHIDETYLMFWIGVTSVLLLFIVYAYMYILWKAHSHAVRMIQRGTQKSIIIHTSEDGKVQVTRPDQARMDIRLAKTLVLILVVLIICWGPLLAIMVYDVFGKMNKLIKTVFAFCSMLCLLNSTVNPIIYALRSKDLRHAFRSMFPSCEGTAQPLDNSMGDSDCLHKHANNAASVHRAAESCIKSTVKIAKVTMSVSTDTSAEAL
# MDA-MB-231 = test: Antiproliferative activity in human MDA-MB-231 cells assessed as cell growth inhibition measured after 72 hrs by SRB assay; type: functional, cell-based; details: MDA-MB-231, 72 h
# HCT-116 = test: Antiproliferative activity in human HCT-116 cells assessed as cell growth inhibition measured after 72 hrs by SRB assay; type: functional, cell-based; details: HCT-116, 72 h
# SK-HEP1 = test: Antiproliferative activity in human SK-HEP1 cells assessed as cell growth inhibition measured after 72 hrs by SRB assay; type: functional, cell-based; details: SK-HEP1, 72 h
# A549 [19] = test: Antiproliferative activity in human A549 cells assessed as cell growth inhibition measured after 72 hrs by SRB assay; type: functional, cell-based; details: A549, 72 h
# A549 [20] = test: Antiproliferative activity in paclitaxel-resistant human A549 cells assessed as cell growth inhibition measured after 72 hrs by SRB assay; type: functional, cell-based; details: A549, 72 h
# [21] = Antiproliferative activity in human SNU-601 cells assessed as cell growth inhibition measured after 72 hrs by SRB assay; type: functional, cell-based; details: SNU-601, 72 h
smiles,measurement,setting,value
COc1ccc(-c2nnc(-c3cc(Br)c(Br)n3C)o2)cc1,MBIC,Staphylococcus aureus [1],0.78 µg/mL
COc1ccc(-c2cc(-c3nnc(C)o3)nn2-c2ccc(NC(=O)c3ccc(F)cc3)cc2)cc1,MIC,[2],> 50 µg/mL
C/C=C(C)/C=C(\C)[C@@H](O)[C@H](C)[C@@H](O)[C@@H]1OC(=O)/C(CCCCCC)=C/c2coc(n2)[C@H](C)[C@@H](O)C[C@H](O)/C=C/C=C\C[C@@H]1O,MIC,[3],64 µg/mL
CC1=NN(c2ccccc2)C(=O)/C1=N/Nc1cccc(-c2nc3ccccc3o2)c1,IC50,MCF7 [4],17 µM
same,IC50,A549 [5],15.5 µM
COc1cc(-c2nnc(SCC(=O)Nc3ccc(/C(C)=N/O)cc3)o2)cc(OC)c1OC,inhibition (INH),Rattus norvegicus [6],96.67%
COc1ccc(-c2cc(-c3nnc(C)o3)nn2-c2ccc(NC(=O)c3ccccc3)cc2)cc1,MIC,[2],> 50 µg/mL
CC(=O)Oc1ccccc1C1OC(c2ccncc2)=NN1C(C)=O (stereo unspecified),IC50,HepG2 [7],50 µM
same,IC50,MCF7 [8],50 µM
Nc1ccc(-c2nnc(SCCSc3nnc(-c4c[nH]c5ccccc45)n3N)o2)cc1,MIC,Staphylococcus aureus [9],2 µg/mL
same,MIC,Escherichia coli,2 µg/mL
Cc1ncc(-c2cccnc2)o1,IC50,A549 [10],4.6 µM
same,IC50,HeLa,4.6 µM
same,IC50,MCF7 [8],4.6 µM
O=[N+]([O-])c1ccc2cc(-c3nnc(-c4ccc(O)cc4O)o3)oc2c1,IC50,Alpha-glucosidase [11],12.75 µM
same,IC50,Alpha-glucosidase [12],2 µM
CC(=O)Oc1ccc(-c2nc(-c3ccccc3)co2)cc1,IC50,HepG2 [13],16.6 µM
O=C(CCN1CCN(c2ccc([N+](=O)[O-])cc2)CC1)Nc1ccc2oc(Cc3ccc(Cl)cc3)nc2c1,inhibition in vivo at 20 mg/kg,Rattus norvegicus [14],81.7%
O=[N+]([O-])c1ccccc1-c1nc(-c2ccccc2)co1,IC50,HepG2 [13],56.5 µM
CCC[C@@H]1NC(=O)C2C[C@H](C)CN2C(=O)[C@@H](NC=O)CNC(=O)[C@H](CSSC[C@@H]2NC(=O)c3coc(n3)[C@H](C)NC(=O)C(=O)[C@H](CCC)NC(=O)C3C[C@H](C)CN3C(=O)[C@@H](NC=O)CNC2=O)NC(=O)c2coc(n2)[C@H](C)NC(=O)C1=O (stereo partly specified),IC50,P388,0.83 µM
Cc1nnc(-c2cc(-c3ccc(Cl)cc3)n(-c3ccc(NC(=O)c4ccccc4)cc3)n2)o1,MIC,[2],3.13 µg/mL
C/C=C(C)/C=C(\C)[C@@H](O)[C@H](C)[C@@H](O)[C@H](O)[C@@H]1C/C=C\C=C\[C@@H](O)C[C@H](O)[C@@H](C)c2nc(cs2)/C=C(\CCCCCC)C(=O)O1,MIC,[3],16 µg/mL
O=c1cc(Nc2ccc(-c3cc(-c4ccc(Cl)cc4Cl)on3)cc2)c2ccccc2o1,MIC,Pseudomonas aeruginosa,12.5 µg/mL
same,MIC,Bacillus cereus,12.5 µg/mL
Cc1nnc(-c2cc(-c3ccc(Cl)cc3)n(-c3ccc(NC(=O)c4ccccc4Cl)cc3)n2)o1,MIC,[2],1.56 µg/mL
Cc1ncc(-c2ccc3ccccc3c2)o1,IC50,A549 [10],4.6 µM
same,IC50,HeLa,4.6 µM
same,IC50,MCF7 [8],4.6 µM
CO[C@@H]1[C@H](N(C)c2ncc(-c3ccccc3)o2)C[C@H]2C[C@]1(C)n1c3ccccc3c3c4c(c5c6ccccc6n2c5c31)C(=O)NC4,IC50,[15],0.5 µM
same,IC50,A549 [16],0.75 µM
Clc1ccccc1-c1nnc(Cn2c(CN3CCOCC3)nc3ccccc32)o1,inhibition (INH),Rattus norvegicus [17],74.17%
O=C(NNC(=S)c1ccc(C(F)(F)F)cc1)c1ccc(-c2nnc(-c3ccc4ncccc4c3)o2)cc1,IC50,Leishmania major,0.1 µM
Cn1c(-c2nnc(-c3ccc(Cl)cc3)o2)cc(Br)c1Br,MBIC,Staphylococcus aureus [1],0.78 µg/mL
C/C=C(C)\C=C(/C)[C@@H](O)[C@H](C)[C@@H](O)[C@@H]1OC(=O)/C(CCCCCC)=C/c2coc(n2)[C@H](C)[C@@H](O)C[C@H](O)/C=C/C=C\C[C@@H]1O,MIC,[3],64 µg/mL
Cn1c(-c2nnc(-c3cc(Br)c(Br)[nH]3)o2)cc(Br)c1Br,MBIC,Staphylococcus aureus [1],0.78 µg/mL
O=[N+]([O-])c1ccc2cc(-c3nnc(-c4ccccc4F)o3)oc2c1,IC50,Alpha-glucosidase [11],12.75 µM
same,IC50,Alpha-glucosidase [12],2 µM
Cn1c(-c2nnc(-c3ccc(Cl)cc3Cl)o2)cc(Br)c1Br,MBIC,Staphylococcus aureus [1],0.39 µg/mL
c1ccc(Cc2noc(-c3cn(CCN4CCCC4)c4ccccc34)n2)cc1,pKb,[18],7.2
O=[N+]([O-])c1ccc2cc(-c3nnc(-c4cccc(O)c4O)o3)oc2c1,IC50,Alpha-glucosidase [11],12.75 µM
same,IC50,Alpha-glucosidase [12],2 µM
CN[C@H](CC(C)C)C(=O)N[C@H]1C(=O)N[C@@H](CC(N)=O)C(=O)N[C@H]2C(=O)N[C@H]3C(=O)N[C@H](C(=O)N[C@H](C(=O)O)c4cc(O)cc(O)c4-c4cc3ccc4O)[C@H](O)c3ccc(c(Cl)c3)Oc3cc2cc(c3O[C@@H]2O[C@H](CO)[C@@H](O)[C@H](O)[C@H]2O[C@H]2C[C@](C)(N)[C@H](O)[C@H](C)O2)Oc2ccc(cc2Cl)[C@H]1O [VANCOMYCIN],MBIC,Staphylococcus aureus [1],3.125 µg/mL
Brc1ccccc1-c1nc(-c2ccccc2)co1,IC50,HepG2 [13],16.9 µM
CO[C@@H]1[C@H](N(C)c2ncc(-c3c[nH]c4ccccc34)o2)C[C@H]2C[C@]1(C)n1c3ccccc3c3c4c(c5c6ccccc6n2c5c31)C(=O)NC4,IC50,[15],0.5 µM
same,IC50,A549 [16],0.45 µM
COC(CC1OC(=O)CC(O)C/C=C/C(=O)C(C)C(OC)c2coc(n2)-c2coc(n2)-c2coc(n2)/C=C\CCC1C)C(C)CCC(=O)C(C)C(C/C=C/N(C)C=O)OC (stereo unspecified),IC50,MDA-MB-231,0.04 µM
same,IC50,HCT-116,0.073 µM
same,IC50,SK-HEP1,0.08 µM
same,IC50,A549 [19],0.024 µM
same,IC50,A549 [20],0.022 µM
same,IC50,[21],0.107 µM
Cc1ncc(-c2cnc3ccccc3c2)o1,IC50,A549 [10],4.6 µM
same,IC50,HeLa,4.6 µM
same,IC50,MCF7 [8],4.6 µM
COc1ccc(-c2nnc(SCCSc3nnc(-c4c[nH]c5ccccc45)n3N)o2)cc1,MIC,Staphylococcus aureus [9],2 µg/mL
same,MIC,Escherichia coli,2 µg/mL
